Measured values as given in patent publication US20250213558A1, “T-TYPE CALCIUM CHANNEL MODULATORS COMPRISING A PIPERAZINE OR 1,4-DIAZEPANE CORE AND METHODS OF USE THEREOF” (Praxis Precision Medicines, Inc., priority 2022, published 2025).
Where two headings read alike, the source gives them in different places.

Molecular target: T1, Human Cav3.1 calcium channel (Homo sapiens, UniProt O43497)
T1 construct: expressed in transfected cells; host or cells: HEK-293 natClytin/TASK1+Cav3.1 cell line
Assay: Human Cav3.1 calcium channel patch clamp assay (SyncroPatch 384PE; single point and IC50, voltage dependent block)
Format: cell-based
Settings: for % Inhibition (Single Point Data): patch clamp
Protocol: Certain compounds (as indicated) were tested for Human Cav3.1 calcium channel activity via a patch clamp assay as disclosed herein.
Pulse generation and data collection were performed with PatchController384 V1.3.0 and DataController384 V1.2.1 (Nanion Technologies). Offline analysis was performed using Excel and Graphpad Prism (V 8.4.2) with complete data files uploaded to Dotmatics. The access resistance and apparent membrane capacitance were estimated using built-in protocols. Current was recorded in whole cell configuration from a population of cells. The cells were lifted, triturated, and resuspended at 800,000 cells/ml. The cells were allowed to recover in the cell hotel prior to experimentation. Currents were recorded at room temperature. The external solution contained the following (in mM): NaCl 80, NMDG 60, KCl 4, MgCl2 1, CaCl2 6, glucose 5 and HEPES 10 (pH=7.4, Osmolarity˜300 mOsm). The extracellular solution was used as the wash, reference and compound delivery solution.
The compound plate was created at 2× concentrated in the extracellular solution. The compound was diluted to 1:2 when added to the recording well. The amount of DMSO in the extracellular solution was held constant at the level used for the highest tested concentration. For the voltage clamp experiments on Cav3.1, data were sampled at 10 KHz. After establishment of the seal and the passage in the whole cell configuration, the cells were held at −120 mV. Cav3.1 current was evoked using a 100 ms step to −20 mV (to measure resting state block), followed by a 1600 ms step to −65 mV and a second 100 ms step to −20 mV (to measure voltage dependent block). The voltage protocol was applied every 15 seconds in the absence and in the presence of the compounds under investigation. […] Current amplitude (pA) was measured in the peak 1 and 2. The average of last 3 sweeps of each liquid period (vehicle, compound under investigation, full block) was calculated. Nickel-sensitive current was used to calculate the % of inhibition in the presence of the compound under investigation.

[1] = Testing Conc 1.25, HEK-293 natClytin/TASK1+Cav3.1 cell line
[2] = voltage dependent block (VDB), HEK-293 natClytin/TASK1+Cav3.1 cell line, read-out: Cav3.1 IC50
[3] = Testing Conc 1, HEK-293 natClytin/TASK1+Cav3.1 cell line

T1 sequence (O43497 whole entry): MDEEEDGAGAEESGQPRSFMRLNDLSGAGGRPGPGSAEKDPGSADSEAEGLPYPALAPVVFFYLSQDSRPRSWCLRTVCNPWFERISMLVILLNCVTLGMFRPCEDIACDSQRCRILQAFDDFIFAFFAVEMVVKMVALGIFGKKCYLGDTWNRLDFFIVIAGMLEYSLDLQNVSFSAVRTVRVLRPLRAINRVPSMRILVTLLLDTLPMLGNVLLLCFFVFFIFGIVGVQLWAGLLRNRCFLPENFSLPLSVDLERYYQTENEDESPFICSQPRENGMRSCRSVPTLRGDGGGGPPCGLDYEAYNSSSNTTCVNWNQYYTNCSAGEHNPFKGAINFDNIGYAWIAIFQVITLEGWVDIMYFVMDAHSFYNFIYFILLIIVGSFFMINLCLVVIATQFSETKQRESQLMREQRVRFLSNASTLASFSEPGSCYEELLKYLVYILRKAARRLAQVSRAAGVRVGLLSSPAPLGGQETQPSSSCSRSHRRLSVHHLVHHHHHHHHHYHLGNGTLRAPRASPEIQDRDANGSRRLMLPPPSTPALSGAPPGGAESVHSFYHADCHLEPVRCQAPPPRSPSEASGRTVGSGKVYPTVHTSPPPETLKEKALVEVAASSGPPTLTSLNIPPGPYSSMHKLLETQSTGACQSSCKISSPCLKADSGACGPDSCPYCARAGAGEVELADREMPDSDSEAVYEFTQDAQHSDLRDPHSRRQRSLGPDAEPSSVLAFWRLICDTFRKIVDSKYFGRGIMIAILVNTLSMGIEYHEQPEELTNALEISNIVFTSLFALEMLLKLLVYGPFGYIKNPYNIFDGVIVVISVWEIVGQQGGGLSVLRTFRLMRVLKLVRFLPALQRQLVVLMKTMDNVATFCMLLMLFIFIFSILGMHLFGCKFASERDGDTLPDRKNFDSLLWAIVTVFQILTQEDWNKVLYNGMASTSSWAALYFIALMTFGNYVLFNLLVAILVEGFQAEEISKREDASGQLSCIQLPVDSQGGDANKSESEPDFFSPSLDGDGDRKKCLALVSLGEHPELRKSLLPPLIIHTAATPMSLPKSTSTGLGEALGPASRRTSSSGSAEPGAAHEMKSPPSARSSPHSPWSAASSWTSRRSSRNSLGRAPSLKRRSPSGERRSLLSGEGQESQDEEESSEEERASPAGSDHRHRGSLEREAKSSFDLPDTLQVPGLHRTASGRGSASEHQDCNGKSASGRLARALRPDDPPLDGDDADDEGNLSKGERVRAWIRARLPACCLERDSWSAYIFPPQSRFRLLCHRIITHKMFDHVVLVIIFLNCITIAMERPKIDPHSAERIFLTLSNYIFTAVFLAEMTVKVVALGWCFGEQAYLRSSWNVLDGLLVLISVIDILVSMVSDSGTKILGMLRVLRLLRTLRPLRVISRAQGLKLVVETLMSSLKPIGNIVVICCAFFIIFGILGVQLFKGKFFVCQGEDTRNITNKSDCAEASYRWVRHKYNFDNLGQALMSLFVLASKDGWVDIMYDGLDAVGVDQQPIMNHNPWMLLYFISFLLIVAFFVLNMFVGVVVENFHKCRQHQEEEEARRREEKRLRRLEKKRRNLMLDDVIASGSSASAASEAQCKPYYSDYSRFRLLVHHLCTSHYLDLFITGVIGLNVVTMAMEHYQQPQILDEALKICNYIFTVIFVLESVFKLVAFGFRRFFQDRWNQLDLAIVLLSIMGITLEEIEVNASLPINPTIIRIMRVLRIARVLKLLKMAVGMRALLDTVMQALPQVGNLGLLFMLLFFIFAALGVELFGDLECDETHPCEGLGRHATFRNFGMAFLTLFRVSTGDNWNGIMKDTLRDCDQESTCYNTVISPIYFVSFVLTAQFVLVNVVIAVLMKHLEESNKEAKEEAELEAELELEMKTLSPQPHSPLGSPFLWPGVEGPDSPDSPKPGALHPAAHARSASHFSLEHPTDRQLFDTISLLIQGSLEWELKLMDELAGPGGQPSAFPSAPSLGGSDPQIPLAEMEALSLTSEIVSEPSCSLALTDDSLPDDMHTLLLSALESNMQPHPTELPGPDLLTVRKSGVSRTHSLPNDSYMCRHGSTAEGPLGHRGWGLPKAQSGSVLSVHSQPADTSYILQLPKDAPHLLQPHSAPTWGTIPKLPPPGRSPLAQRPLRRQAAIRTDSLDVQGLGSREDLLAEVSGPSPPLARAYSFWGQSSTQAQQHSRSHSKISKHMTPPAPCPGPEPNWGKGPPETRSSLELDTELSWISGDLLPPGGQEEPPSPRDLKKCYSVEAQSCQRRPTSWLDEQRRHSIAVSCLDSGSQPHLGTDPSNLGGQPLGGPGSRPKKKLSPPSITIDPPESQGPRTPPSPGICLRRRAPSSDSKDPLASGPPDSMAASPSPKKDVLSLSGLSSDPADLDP

Row | SMILES | % Inhibition (Single Point Data) [1] | IC50 [2] | % Inhibition (Single Point Data) [3] | IC50
1 | CC(C)Cc1cc(CNC(=O)CN2CCN(CC(=O)NC(C)(C)C)CC2)nn1-c1ccccc1 [Compound 1, 2-[4-[2-(tert-butylamino)-2-oxo-ethyl]piperazin-1-yl]-N-[(5-isobutyl-1-phenyl-pyrazol-3-yl)methyl]acetamide] | 27.978% | 2240 nM | – | –
2 | Cc1cc(CNC(=O)CN2CCN(CC(=O)NC(C)(C)C)CC2)nn1-c1ccccc1 [Compound 2] | – | – | 40.057% | –
3 | CC(C)(C)NC(=O)CN1C2CCC1CN(CC(=O)Nc1cc(F)cc(Cl)c1)C2 [Compound 3] | 94.689% | 273 nM | – | –
4 | Cn1nc(C2CC2)cc1NC(=O)CN1CC2CCC(C1)N2CC(=O)NC(C)(C)C [Compound 4] | 15.896% | – | – | –
5 | CC(C)(C)NC(=O)CN1C2CCC1CN(CC(=O)NCc1cc3ccccc3o1)C2 [Compound 5] | 22.469% | – | – | –
6 | Cn1nc(C(C)(C)C)cc1NC(=O)CN1CC2CCC(C1)N2CC(=O)NC(C)(C)C [Compound 6] | 10.343% | – | – | –
7 | CC(C)(C)NC(=O)CN1C2CCC1CN(CC(=O)NC13CC4CC(CC(C4)C1)C3)C2 [Compound 7] | 64.635% | 904 nM | – | –
8 | CC(C)(C)NC(=O)CN1CC2CCC1CN2CC(=O)NC12CC3CC(CC(C3)C1)C2 (stereo not drawn) [Compound 8] | 76.573% | 609 nM | – | –
9 | CC(C)(C)NC(=O)CN1C2CC1CN(CC(=O)Nc1cc(F)cc(Cl)c1)C2 [Compound 10] | 83.732% | 143 nM | – | –
10 | CC(C)(C)NC(=O)CN1C2CC1CN(CC(=O)Nc1cccc(Cl)c1)C2 [Compound 11] | 81.305% | – | – | –
11 | CC(C)(C)NC(=O)CN1C2CC1CN(CC(=O)Nc1cccc(OC(F)F)c1)C2 [Compound 12] | 81.341% | – | – | –
12 | CC(C)(C)NC(=O)CN1CC2CC1CN2CC(=O)Nc1cccc(C(F)F)c1 (stereo not drawn) [Compound 13] | 64.618% | 490 nM | – | –
13 | CC(C)(C)NC(=O)CN1C2CC1CN(CC(=O)Nc1cc(Cl)ccc1F)C2 [Compound 14] | 39.34% | 1710 nM | – | –
14 | CC(C)(C)NC(=O)CN1C2CC1CN(CC(=O)Nc1cccc(C(F)F)c1)C2 [Compound 15] | 73.866% | 308 nM | – | –
15 | O=C(CN1CC2CC(C1)N2CCNC(=O)C1(C(F)(F)F)CC1)Nc1ccc(F)c(Cl)c1 [Compound 16] | 94.311% | – | – | –
16 | O=C(CN1CC2CC(C1)N2CCNC(=O)C1(C(F)(F)F)CCC1)Nc1ccc(F)c(Cl)c1 [Compound 17] | 99.317% | – | – | < 78.2 nM
17 | O=C(CN1CC2CC1CN2CCNC(=O)C1(C(F)(F)F)CC1)Nc1ccc(F)c(Cl)c1 (stereo not drawn) [Compound 18] | 83.021% | 337 nM | – | –
18 | O=C(CN1CC2CC1CN2CCNC(=O)C1(C(F)(F)F)CCC1)Nc1ccc(F)c(Cl)c1 (stereo not drawn) [Compound 19] | 84.472% | 251 nM | – | –
19 | O=C(CN1C[C@H]2C[C@@H]1CN2CC(=O)NC1(C(F)(F)F)CC1)Nc1cc(F)cc(Cl)c1 [Compound 20] | 56.816% | 1020 nM | – | –
20 | CC(C)(C)NC(=O)CN1C[C@H]2C[C@@H]1CN2CC(=O)Nc1cc(F)cc(OC(F)F)c1 [Compound 21] | 73.828% | – | – | –
21 | CC(C)(C)NC(=O)CN1C[C@@H]2C[C@H]1CN2CC(=O)Nc1cc(F)cc(OC(F)F)c1 [Compound 22] | 97.77% | < 78.2 nM | – | –
22 | CC(C)(C)NC(=O)CN1C[C@@H]2C[C@H]1CN2CC(=O)Nc1ccc(F)c(Cl)c1 [Compound 23] | 91.472% | – | – | –
23 | CC(C)(NC(=O)CN1C[C@@H]2C[C@H]1CN2CC(=O)Nc1ccc(F)c(Cl)c1)C(F)(F)F [Compound 24] | 92.08% | 185 nM | – | –
24 | O=C(CN1C[C@@H]2C[C@H]1CN2CC(=O)NC1(C(F)(F)F)CC1)Nc1ccc(F)c(Cl)c1 [Compound 25] | 66.125% | 457 nM | – | –
25 | CC(C)(C)NC(=O)CN1C[C@H]2C[C@@H]1CN2CC(=O)Nc1ccc(F)c(Cl)c1 [Compound 26] | 57.68% | 827 nM | – | –
26 | CC(C)(NC(=O)CN1C[C@H]2C[C@@H]1CN2CC(=O)Nc1ccc(F)c(Cl)c1)C(F)(F)F [Compound 27] | 69.274% | 457 nM | – | –
27 | O=C(CN1C[C@H]2C[C@@H]1CN2CC(=O)NC1(C(F)(F)F)CC1)Nc1ccc(F)c(Cl)c1 [Compound 28] | 39.491% | 1570 nM | – | –

Row | SMILES | % Inhibition (Single Point Data) [1] | IC50 [2] | % Inhibition (Single Point Data) [3] | IC50
28 | CC(C(=O)Nc1ccc(F)c(Cl)c1)N1CC2CC(C1)N2CC(=O)NC(C)(C)C (stereo not drawn) [Compound 29] | 90.315% | 342 nM | – | –
29 | CC(C(=O)Nc1ccc(F)c(Cl)c1)N1CC2CC(C1)N2CC(=O)NC1(C(F)(F)F)CC1 (stereo not drawn) [Compound 30] | 63.42% | 705 nM | – | –
30 | CC(C)(C)NC(=O)CN1CCN(Cc2cnc(-c3cc(F)cc(Cl)c3)[nH]2)CC1 [Compound 31, N-tert-butyl-2-[4-[[2-(3-chloro-5-fluoro-phenyl)-1H-imidazol-5-yl]methyl]piperazin-1-yl]acetamide] | – | 409 nM | 75.738% | –
31 | CC(C)(C)NC(=O)CN1CCCN(CC(=O)NC23CC4CC(CC(C4)C2)C3)CC1 [Compound 32] | – | – | 56.921% | –
32 | CC(C)(C)NC(=O)CN1CCN(CC(=O)NC23CC4CC(CC(C4)C2)C3)C(=O)C1 [Compound 33] | – | – | 54.403% | –
33 | CC(C)(C)NC(=O)CN1CCCN(CC(=O)Nc2cc(F)cc(Cl)c2)CC1 [Compound 34] | – | – | 51.943% | –
34 | CC(C)(C)NC(=O)CN1CCN(CC(=O)Nc2cc(F)cc(Cl)c2)C(=O)C1 [Compound 35] | – | – | 42.822% | –
35 | CC(C)(C)NC(=O)CN1CCCN(CC(=O)Nc2cc(F)cc(Cl)c2)C(=O)C1 [Compound 36] | – | – | 45.763% | –
36 | CC(C)(C)NC(=O)CN1CCC(=O)N(CC(=O)Nc2cc(F)cc(Cl)c2)CC1 [Compound 37] | – | – | 25.144% | –
37 | O=C(CN1CCN(CCC2CCOCC2)CC1=O)Nc1cc(F)cc(Cl)c1 [Compound 38] | – | – | 30.86% | –
38 | Cc1cc(NC(=O)CN2CCN(CC(=O)NC(C)(C)C)CC2)n(C)n1 [Compound 39] | – | – | 35.477% | –
39 | Cn1nc(NC(=O)CN2CCN(CC(=O)NC(C)(C)C)CC2)c2ccccc21 [Compound 40] | – | – | 17.386% | –
40 | CC(C)(C)NC(=O)CN1CCN(CC(=O)Nc2noc3ccccc23)CC1 [Compound 41] | – | 316 nM | 38.937% | –
41 | COCC1CN(CC(=O)NC(C)(C)C)CCN1CC(=O)Nc1cc(F)cc(Cl)c1 (stereo not drawn) [Compound 42] | – | 627 nM | 62.5% | –
42 | CC(C)(C)NC(=O)CN1CCN(Cc2cnc(-c3ccccc3)[nH]2)CC1 [Compound 43] | – | – | 29.301% | –
43 | CC(C)(C)NC(=O)CN1CCN(CC(=O)Nc2cc(F)cc(Cl)c2)C2(COC2)C1 [Compound 44] | 50% | 1210 nM | – | –
44 | CC(C)(C)NC(=O)CN1CC[C@H](CNc2nccc3ccc(Cl)cc23)CC1=O [Compound 45] | 58.802% | – | – | –
45 | CC(C)(C)NC(=O)CN1CC[C@@H](CNc2nccc3ccc(Cl)cc23)CC1=O [Compound 46] | – | 600 nM | – | –
46 | CC(C)(NC(=O)CN1CC2CC1CN2CC(=O)Nc1cc(F)cc(Cl)c1)C(F)(F)F (stereo not drawn) [Compound 47] | 89.371% | 33.7 nM | – | –
47 | CC(C)(C)NC(=O)CN1CC2CC1CN2CC(=O)Nc1cc(Cl)ccc1F (stereo not drawn) [Compound 48] | 28.07% | 1340 nM | – | –
48 | O=C(CN1CC2CC(C1)N2CC(F)C1CCCCC1)Nc1cc(F)cc(Cl)c1 (stereo not drawn) [Compound 49] | 44.843% | 1160 nM | – | –
49 | CC(C)(C)S(=O)(=O)CCN1C2CC1CN(CC(=O)Nc1cc(F)cc(Cl)c1)C2 [Compound 50] | 57.816% | – | – | –
50 | N#CC1(CN2C3CC2CN(CC(=O)Nc2cc(F)cc(Cl)c2)C3)CCCCC1 [Compound 51] | 29.781% | 1440 nM | – | –
51 | N#CC1(CN2C3CC2CN(CC(=O)Nc2cc(F)cc(Cl)c2)C3)CCC(F)(F)CC1 [Compound 52] | 51.764% | 853 nM | – | –
52 | CC(C)(NC(=O)CN1CCN(CC(=O)Nc2cc(F)cc(OC(F)F)c2)CC1)C(F)(F)F [Compound 53] | 57.147% | 1010 nM | – | –
53 | O=C(CN1CCN(CC(=O)NC2(C(F)(F)F)CC2)CC1)Nc1cc(F)cc(OC(F)F)c1 [Compound 54] | 39.211% | 1560 nM | – | –
